In general, IC50 refers to the concentration that gives 50% inhibition.

The target of the experiment is human Nav1.7 (Homo sapiens (Human), UniProt Q15858). Briefly: FRET-based membrane potential assay, recombinant human sodium channel Nav1.7. Type of experiment: cell-based. As to conditions: HEK293 cells stably expressing recombinant human Nav1.7; depolarization with veratridine (EC80) + scorpion venom. Put shortly: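 IC50 derived by four-parameter Hill fit of percent inhibition of depolarization, measured as peak F440-480/F565-625 ratio over baseline. Stable human Nav1.7 HEK293 cells, dye-loaded with CC2-DMPE and DiSBAC2(3)/VABSC-1 at room temperature, received compound 3 min ahead of veratridine (EC80) plus scorpion venom.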
human Nav1.7, sequence (Q15858 whole entry): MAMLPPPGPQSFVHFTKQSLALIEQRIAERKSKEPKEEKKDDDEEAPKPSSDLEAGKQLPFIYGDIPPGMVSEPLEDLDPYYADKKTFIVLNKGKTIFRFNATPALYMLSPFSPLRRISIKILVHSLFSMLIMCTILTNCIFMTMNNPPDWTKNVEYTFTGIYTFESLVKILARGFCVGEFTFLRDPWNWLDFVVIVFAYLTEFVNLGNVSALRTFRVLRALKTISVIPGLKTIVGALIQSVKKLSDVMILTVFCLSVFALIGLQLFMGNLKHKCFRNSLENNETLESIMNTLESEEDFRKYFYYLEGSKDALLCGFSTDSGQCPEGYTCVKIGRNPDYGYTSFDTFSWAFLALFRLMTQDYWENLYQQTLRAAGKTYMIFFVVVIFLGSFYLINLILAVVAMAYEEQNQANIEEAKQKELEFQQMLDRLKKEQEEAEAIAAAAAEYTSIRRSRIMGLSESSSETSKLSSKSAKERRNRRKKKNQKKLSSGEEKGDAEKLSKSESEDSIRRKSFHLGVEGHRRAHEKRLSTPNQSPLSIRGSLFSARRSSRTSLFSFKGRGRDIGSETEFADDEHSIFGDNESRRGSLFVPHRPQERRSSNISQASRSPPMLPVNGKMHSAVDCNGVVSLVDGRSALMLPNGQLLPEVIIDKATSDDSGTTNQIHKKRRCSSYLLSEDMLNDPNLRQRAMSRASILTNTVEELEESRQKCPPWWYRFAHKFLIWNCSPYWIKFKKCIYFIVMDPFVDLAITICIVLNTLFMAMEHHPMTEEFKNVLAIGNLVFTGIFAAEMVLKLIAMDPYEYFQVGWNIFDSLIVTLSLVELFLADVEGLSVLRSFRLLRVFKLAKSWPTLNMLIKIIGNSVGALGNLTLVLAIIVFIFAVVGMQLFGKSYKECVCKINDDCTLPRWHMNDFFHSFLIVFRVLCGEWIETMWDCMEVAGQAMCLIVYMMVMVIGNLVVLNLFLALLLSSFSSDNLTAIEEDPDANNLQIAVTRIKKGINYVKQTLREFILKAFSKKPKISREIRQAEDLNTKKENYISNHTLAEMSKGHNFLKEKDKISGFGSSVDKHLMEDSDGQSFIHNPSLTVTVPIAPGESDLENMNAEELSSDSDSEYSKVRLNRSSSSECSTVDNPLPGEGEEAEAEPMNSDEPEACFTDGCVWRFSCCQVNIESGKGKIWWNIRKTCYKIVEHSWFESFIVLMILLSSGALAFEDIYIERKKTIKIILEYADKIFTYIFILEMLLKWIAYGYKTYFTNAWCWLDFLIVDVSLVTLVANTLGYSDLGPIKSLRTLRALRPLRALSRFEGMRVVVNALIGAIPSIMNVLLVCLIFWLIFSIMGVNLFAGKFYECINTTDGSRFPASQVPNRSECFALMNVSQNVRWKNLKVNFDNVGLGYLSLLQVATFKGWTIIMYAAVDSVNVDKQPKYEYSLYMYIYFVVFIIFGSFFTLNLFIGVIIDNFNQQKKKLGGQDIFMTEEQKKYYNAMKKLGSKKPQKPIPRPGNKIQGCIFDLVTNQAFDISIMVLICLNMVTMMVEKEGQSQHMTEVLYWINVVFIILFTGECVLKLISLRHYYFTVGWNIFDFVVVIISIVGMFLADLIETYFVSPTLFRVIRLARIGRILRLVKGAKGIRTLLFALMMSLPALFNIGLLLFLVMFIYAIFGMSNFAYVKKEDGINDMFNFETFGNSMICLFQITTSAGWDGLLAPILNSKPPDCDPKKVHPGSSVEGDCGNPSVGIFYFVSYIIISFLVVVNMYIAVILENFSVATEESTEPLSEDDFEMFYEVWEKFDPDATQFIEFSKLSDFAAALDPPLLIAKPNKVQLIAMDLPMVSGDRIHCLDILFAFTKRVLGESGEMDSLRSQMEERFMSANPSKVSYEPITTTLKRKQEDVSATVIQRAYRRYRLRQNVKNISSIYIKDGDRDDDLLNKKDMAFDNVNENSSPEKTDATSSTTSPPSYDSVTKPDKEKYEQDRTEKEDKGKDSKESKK
`O=C1N(CC2(OCc3ccccc3)CC2)CCN1c1cccc2c1cnn2-c1ccccc1F` [Example 229, 1-{[1-(benzyloxy)cyclopropyl]methyl}-3-[1-(2-fluorophenyl)-1H-indazol-4-yl]imidazolidin-2-one]: the 50% inhibitory concentration (IC50) worked out at 9080 nM.
In the case of `COc1cncc(N2CCN(c3cccc4c3cnn4-c3ccccc3F)C2=O)c1` [Example 230, 1-[1-(2-fluorophenyl)-1H-indazol-4-yl]-3-(5-methoxypyridin-3-yl)imidazolidin-2-one], the concentration for half-maximal inhibition (IC50) was 3730 nM.
Next, `O=C1N(Cc2cnco2)CCN1c1cccc2c1cnn2-c1ccccc1F` [Example 231, 1-[1-(2-fluorophenyl)-1H-indazol-4-yl]-3-(1,3-oxazol-5-ylmethyl)imidazolidin-2-one]: 3650 nM.
For the compound `O=C1C(N2CCN(c3cccc4c3cnn4-c3ccccc3F)C2=O)CCN1Cc1ccccc1` (stereo not drawn) [Example 232, 1-(1-benzyl-2-oxopyrrolidin-3-yl)-3-[1-(2-fluorophenyl)-1H-indazol-4-yl]imidazolidin-2-one], the half-inhibitory concentration (IC50) was determined as 1150 nM.
Next, `CC(C)(C)c1cnc(CN2CCN(c3cccc4c3cnn4-c3ccccc3F)C2=O)o1` [Example 233, 1-[(5-tert-butyl-1,3-oxazol-2-yl)methyl]-3-[1-(2-fluorophenyl)-1H-indazol-4-yl]imidazolidin-2-one]: 1020 nM.
For the compound `Cc1nnc(CN2CCN(c3cccc4c3cnn4-c3ccc(F)cc3F)C2=O)s1` [Example 234, 1-[1-(2,4-difluorophenyl)-1H-indazol-4-yl]-3-[(5-methyl-1,3,4-thiadiazol-2-yl)methyl]imidazolidin-2-one], the 50% inhibitory concentration (IC50) was 2900 nM.
Regarding `O=C1N(Cc2ncco2)CCN1c1cccc2c1cnn2-c1ccc(C(F)(F)F)cc1` [Example 235, 1-(1,3-oxazol-2-ylmethyl)-3-{1-[4-(trifluoromethyl)phenyl]-1H-indazol-4-yl}imidazolidin-2-one], the IC50 turned out to be 1130 nM.
Regarding `Cc1noc(C)c1N1CCN(c2cccc3c2cnn3-c2ccccc2F)C1=O` [Example 236, 1-(3,5-dimethyl-1,2-oxazol-4-yl)-3-[1-(2-fluorophenyl)-1H-indazol-4-yl]imidazolidin-2-one], the IC50 was determined as 924 nM.
Next, `CC(C)c1cnc(CN2CCN(c3cccc4c3cnn4-c3ccccc3F)C2=O)o1` [Example 237, 1-[1-(2-fluorophenyl)-1H-indazol-4-yl]-3-[(5-isopropyl-1,3-oxazol-2-yl)methyl]imidazolidin-2-one]: 667 nM; `Cc1nc(CN2CCN(c3cccc4c3cnn4-c3ccccc3F)C2=O)oc1C` [Example 238, 1-[(4,5-dimethyl-1,3-oxazol-2-yl)methyl]-3-[1-(2-fluorophenyl)-1H-indazol-4-yl]imidazolidin-2-one]: 586 nM.
For `Cc1nc(CN2CCN(c3cccc4c3cnn4-c3ccccc3F)C2=O)c(C)s1` [Example 239, 1-[(2,5-dimethyl-1,3-thiazol-4-yl)methyl]-3-[1-(2-fluorophenyl)-1H-indazol-4-yl]imidazolidin-2-one] the value was 352 nM; for `Cc1nnc(CN2CCN(c3cccc4c3cnn4-c3ccc(C(F)(F)F)cc3)C2=O)s1` [Example 240, 1-[(5-methyl-1,3,4-thiadiazol-2-yl)methyl]-3-{1-[4-(trifluoromethyl)phenyl]-1H-indazol-4-yl}imidazolidin-2-one], 13400 nM; for `C[C@@H]1CN(c2cccc3c2cnn3-c2ccccc2F)C(=O)N1C(=O)OC(C)(C)C` [Example 241, tert-butyl (5R)-3-[1-(2-fluorophenyl)-1H-indazol-4-yl]-5-methyl-2-oxoimidazolidine-1-carboxylate], 2350 nM.
Next, `O=C1N(Cc2cocn2)CCN1c1cccc2c1cnn2-c1ccc(C(F)(F)F)cc1` [Example 242, 1-(1,3-oxazol-4-ylmethyl)-3-{1-[4-(trifluoromethyl)phenyl]-1H-indazol-4-yl}imidazolidin-2-one]: 3330 nM; `Cc1nc(CN2CCN(c3cccc4c3cnn4-c3ccc(F)cc3F)C2=O)cs1` [Example 243, 1-[1-(2,4-difluorophenyl)-1H-indazol-4-yl]-3-[(2-methyl-1,3-thiazol-4-yl)methyl]imidazolidin-2-one]: 1610 nM.
Consider `Cc1cc(CN2CCN(c3cccc4c3cnn4-c3ccccc3F)C2=O)on1` [Example 244, 1-[1-(2-fluorophenyl)-1H-indazol-4-yl]-3-[(3-methyl-1,2-oxazol-5-yl)methyl]imidazolidin-2-one], for which the 50% inhibitory concentration (IC50) was determined as 3080 nM.
For `Cc1scnc1CN1CCN(c2cccc3c2cnn3-c2ccccc2F)C1=O` [Example 245, 1-[1-(2-fluorophenyl)-1H-indazol-4-yl]-3-[(5-methyl-1,3-thiazol-4-yl)methyl]imidazolidin-2-one] the value was 207 nM; for `C[C@@H]1CN(c2cccc3c2cnn3-c2ccccc2F)C(=O)N1` [Example 246, (4R)-1-[1-(2-fluorophenyl)-1H-indazol-4-yl]-4-methylimidazolidin-2-one], 2980 nM; for `C[C@@H]1CN(c2cccc3c2cnn3-c2ccccc2F)C(=O)N1Cc1ncco1` [Example 247, (4R)-1-[1-(2-fluorophenyl)-1H-indazol-4-yl]-4-methyl-3-(1,3-oxazol-2-ylmethyl)imidazolidin-2-one], 981 nM.
For `COc1nccnc1CN1CCN(c2cccc3c2cnn3-c2ccccc2F)C1=O` [Example 248, 1-[1-(2-fluorophenyl)-1H-indazol-4-yl]-3-[(3-methoxypyrazin-2-yl)methyl]imidazolidin-2-one] the value was 1040 nM; for `CC(C)c1cc(CN2CCN(c3cccc4c3cnn4-c3ccccc3F)C2=O)on1` [Example 249, 1-[1-(2-fluorophenyl)-1H-indazol-4-yl]-3-[(3-isopropyl-1,2-oxazol-5-yl)methyl]imidazolidin-2-one], 2430 nM.
For `CCc1nc(CN2CCN(c3cccc4c3cnn4-c3ccccc3F)C2=O)cs1` [Example 250, 1-[(2-ethyl-1,3-thiazol-4-yl)methyl]-3-[1-(2-fluorophenyl)-1H-indazol-4-yl]imidazolidin-2-one] the value was 1140 nM.
For `CC(C)c1cc(CN2CCN(c3cccc4c3cnn4-c3ccccc3F)C2=O)no1` [Example 251, 1-[1-(2-fluorophenyl)-1H-indazol-4-yl]-3-[(5-isopropyl-1,2-oxazol-3-yl)methyl]imidazolidin-2-one], the concentration for half-maximal inhibition (IC50) was determined as 2060 nM.
Next, `O=C1N(Cc2cc(C3CC3)on2)CCN1c1cccc2c1cnn2-c1ccccc1F` [Example 252, 1-[(5-cyclopropyl-1,2-oxazol-3-yl)methyl]-3-[1-(2-fluorophenyl)-1H-indazol-4-yl]imidazolidin-2-one]: 1760 nM; `Cc1noc([C@@H](C)N2CCN(c3cccc4c3cnn4-c3ccc(F)cc3F)C2=O)n1` [Example 253, 1-[1-(2,4-difluorophenyl)-1H-indazol-4-yl]-3-[(1R)-1-(3-methyl-1,2,4-oxadiazol-5-yl)ethyl]imidazolidin-2-one]: 932 nM; `COCc1nc(CN2CCN(c3cccc4c3cnn4-c3ccccc3F)C2=O)cs1` [Example 254, 1-[1-(2-fluorophenyl)-1H-indazol-4-yl]-3-{[2-(methoxymethyl)-1,3-thiazol-4-yl]methyl}imidazolidin-2-one]: 825 nM.
For `O=C1N(Cc2ncco2)CCCN1c1cccc2c1cnn2-c1ccccc1F` [Example 255, 1-[1-(2-fluorophenyl)-1H-indazol-4-yl]-3-(1,3-oxazol-2-ylmethyl)tetrahydropyrimidin-2(1H)-one] the value was 5510 nM.
Take `CC(C)c1nnc(CN2CCN(c3cccc4c3cnn4-c3ccccc3F)C2=O)o1` [Example 256, 1-[1-(2-fluorophenyl)-1H-indazol-4-yl]-3-[(5-isopropyl-1,3,4-oxadiazol-2-yl)methyl]imidazolidin-2-one]: the IC50 was 3120 nM.
Next, `Cc1cnc(CN2CCN(c3cccc4c3cnn4-c3ccccc3F)C2=O)cn1` [Example 257, 1-[1-(2-fluorophenyl)-1H-indazol-4-yl]-3-[(5-methylpyrazin-2-yl)methyl]imidazolidin-2-one]: 3090 nM.
On to `Cc1noc(C)c1CN1CCCN(c2cccc3c2cnn3-c2ccccc2F)C1=O` [Example 258, 1-[(3,5-dimethyl-1,2-oxazol-4-yl)methyl]-3-[1-(2-fluorophenyl)-1H-indazol-4-yl]tetrahydropyrimidin-2(1H)-one], for which the IC50 came out at 11000 nM.
For `Cc1cncc(CN2CCCN(c3cccc4c3cnn4-c3ccccc3F)C2=O)n1` [Example 259, 1-[1-(2-fluorophenyl)-1H-indazol-4-yl]-3-[(6-methylpyrazin-2-yl)methyl]tetrahydropyrimidin-2(1H)-one] the value was 3360 nM; for `Cc1nnc(CN2CCCN(c3cccc4c3cnn4-c3ccccc3F)C2=O)o1` [Example 260, 1-[1-(2-fluorophenyl)-1H-indazol-4-yl]-3-[(5-methyl-1,3,4-oxadiazol-2-yl)methyl]tetrahydropyrimidin-2(1H)-one], 20000 nM.
For `CCc1nnc(CN2CCN(c3cccc4c3cnn4-c3ccccc3F)C2=O)o1` [Example 261, 1-[(5-ethyl-1,3,4-oxadiazol-2-yl)methyl]-3-[1-(2-fluorophenyl)-1H-indazol-4-yl]imidazolidin-2-one] the value was 3410 nM.
For `CC(C)(C)c1nnc(CN2CCN(c3cccc4c3cnn4-c3ccccc3F)C2=O)o1` [Example 262, 1-[(5-tert-butyl-1,3,4-oxadiazol-2-yl)methyl]-3-[1-(2-fluorophenyl)-1H-indazol-4-yl]imidazolidin-2-one] the value was 2520 nM; for `Cc1cnc(CN2CCN(c3cccc4c3cnn4-c3ccccc3F)C2=O)s1` [Example 263, 1-[1-(2-fluorophenyl)-1H-indazol-4-yl]-3-[(5-methyl-1,3-thiazol-2-yl)methyl]imidazolidin-2-one], 494 nM; for `Cc1nocc1CN1CCN(c2cccc3c2cnn3-c2ccccc2F)C1=O` [Example 264, 1-[1-(2-fluorophenyl)-1H-indazol-4-yl]-3-[(3-methyl-1,2-oxazol-4-yl)methyl]imidazolidin-2-one], 3350 nM.

Source of the values: patent US9783527B2, “Indazole ureas and method of use” (AbbVie Inc., priority 2014, dated 2017).
